Results reported in the NIST ThermoML archive (doi:10.1021/je101250d).
“And” between values parts separate entries of the source, which are not always exact repeats. Equal values may be shown once. ± gives the expanded uncertainty stated by the source.

Key:
[1] = Liquid; for mass density: 298.15 K, 101.33 kPa, Vibrating tube method
[2] = Boiling temperature at pressure P; conditions: 101.33 kPa; Liquid; Ebulliometric method (Recirculating still)
[3] = refractive index (Na D-line) (dimensionless); conditions: 298.15 K; 101.33 kPa; Liquid; Standard Abbe refractometry

## CCCCCCC [heptane]
[1]
  mass density: 679.55 ± 0.16 kg/m3
[1]; 319.06 K
  vapor or sublimation pressure: 16.01 ± 0.07 kPa
[1]; 329.07 K
  vapor or sublimation pressure: 24.01 ± 0.07 kPa
[1]; 334.91 K
  vapor or sublimation pressure: 30.01 ± 0.08 kPa
[1]; 339.08 K
  vapor or sublimation pressure: 35.01 ± 0.08 kPa
[1]; 342.78 K
  vapor or sublimation pressure: 40.01 ± 0.09 kPa
[1]; 346.14 K
  vapor or sublimation pressure: 45.01 ± 0.09 kPa
[1]; 349.19 K
  vapor or sublimation pressure: 50.01 ± 0.09 kPa and 50 ± 0.57 kPa
[1]; 349.24 K
  vapor or sublimation pressure: 50 ± 0.57 kPa
[1]; 352.01 K
  vapor or sublimation pressure: 55.01 ± 0.1 kPa
[1]; 354.63 K
  vapor or sublimation pressure: 60.01 ± 0.1 kPa
[1]; 357.1 K
  vapor or sublimation pressure: 65.01 ± 0.11 kPa
[1]; 359.42 K
  vapor or sublimation pressure: 70.01 ± 0.11 kPa
[1]; 361.59 K
  vapor or sublimation pressure: 75.01 ± 0.11 kPa
[1]; 361.6 K
  vapor or sublimation pressure: 75 ± 1.1 kPa
[1]; 361.66 K
  vapor or sublimation pressure: 75 ± 1.1 kPa
[1]; 363.67 K
  vapor or sublimation pressure: 80.01 ± 0.12 kPa
[1]; 366.41 K
  vapor or sublimation pressure: 87.01 ± 0.12 kPa
[1]; 368.98 K
  vapor or sublimation pressure: 94 ± 1.5 kPa
[1]; 368.99 K
  vapor or sublimation pressure: 94.01 ± 0.13 kPa
[1]; 369.04 K
  vapor or sublimation pressure: 94 ± 1.5 kPa
[1]; 371.63 K
  vapor or sublimation pressure: 101.74 ± 0.14 kPa
[2]
  Boiling temperature at pressure P: 98.4 ± 0.04 °C
[3]
  refractive index: 1.38668 ± 0.00031

## CCC(C)(C)OC [2-methoxy-2-methylbutane]
[1]
  mass density: 765.83 ± 0.13 kg/m3
[1]; 313.44 K
  vapor or sublimation pressure: 20.01 ± 0.07 kPa
[1]; 318.99 K
  vapor or sublimation pressure: 25.01 ± 0.07 kPa
[1]; 323.68 K
  vapor or sublimation pressure: 30.01 ± 0.08 kPa
[1]; 327.77 K
  vapor or sublimation pressure: 35.01 ± 0.08 kPa
[1]; 331.41 K
  vapor or sublimation pressure: 40.01 ± 0.09 kPa
[1]; 334.69 K
  vapor or sublimation pressure: 45.01 ± 0.09 kPa
[1]; 337.64 K
  vapor or sublimation pressure: 50 ± 0.57 kPa
[1]; 337.66 K
  vapor or sublimation pressure: 50 ± 0.57 kPa
[1]; 337.69 K
  vapor or sublimation pressure: 50.01 ± 0.09 kPa
[1]; 340.46 K
  vapor or sublimation pressure: 55.01 ± 0.1 kPa
[1]; 343.03 K
  vapor or sublimation pressure: 60.01 ± 0.1 kPa
[1]; 345.89 K
  vapor or sublimation pressure: 66.01 ± 0.11 kPa
[1]; 348.97 K
  vapor or sublimation pressure: 73.01 ± 0.11 kPa
[1]; 349.73 K
  vapor or sublimation pressure: 75 ± 1.1 kPa
[1]; 349.8 K
  vapor or sublimation pressure: 75 ± 1.1 kPa
[1]; 351.84 K
  vapor or sublimation pressure: 80.01 ± 0.12 kPa
[1]; 354.52 K
  vapor or sublimation pressure: 87.01 ± 0.13 kPa
[1]; 356.92 K
  vapor or sublimation pressure: 94 ± 1.5 kPa
[1]; 357.02 K
  vapor or sublimation pressure: 94.01 ± 0.13 kPa
[1]; 357.04 K
  vapor or sublimation pressure: 94 ± 1.5 kPa
[1]; 359.95 K
  vapor or sublimation pressure: 102.73 ± 0.14 kPa
[2]
  Boiling temperature at pressure P: 86.37 ± 0.04 °C
[3]
  refractive index: 1.38712 ± 0.00031

## CCC(C)O (stereo not given) [butan-2-ol]
[1]
  mass density: 802.98 ± 0.11 kg/m3
[1]; 334.83 K
  vapor or sublimation pressure: 20.01 ± 0.08 kPa
[1]; 339.42 K
  vapor or sublimation pressure: 25.01 ± 0.08 kPa
[1]; 343.31 K
  vapor or sublimation pressure: 30.01 ± 0.08 kPa
[1]; 346.69 K
  vapor or sublimation pressure: 35.01 ± 0.09 kPa
[1]; 349.69 K
  vapor or sublimation pressure: 40.01 ± 0.09 kPa
[1]; 352.38 K
  vapor or sublimation pressure: 45.01 ± 0.1 kPa
[1]; 354.84 K
  vapor or sublimation pressure: 50.01 ± 0.11 kPa
[1]; 354.91 K
  vapor or sublimation pressure: 50 ± 0.47 kPa
[1]; 355.12 K
  vapor or sublimation pressure: 50 ± 0.47 kPa
[1]; 357.11 K
  vapor or sublimation pressure: 55.01 ± 0.11 kPa
[1]; 359.21 K
  vapor or sublimation pressure: 60.01 ± 0.12 kPa
[1]; 361.55 K
  vapor or sublimation pressure: 66.01 ± 0.12 kPa
[1]; 364.08 K
  vapor or sublimation pressure: 73.01 ± 0.13 kPa
[1]; 364.8 K
  vapor or sublimation pressure: 75 ± 0.9 kPa
[1]; 365.2 K
  vapor or sublimation pressure: 75 ± 0.9 kPa
[1]; 366.4 K
  vapor or sublimation pressure: 80.01 ± 0.14 kPa
[1]; 368.58 K
  vapor or sublimation pressure: 87.01 ± 0.15 kPa
[1]; 370.61 K
  vapor or sublimation pressure: 94.01 ± 0.16 kPa
[1]; 370.66 K
  vapor or sublimation pressure: 94 ± 1.2 kPa
[1]; 371.17 K
  vapor or sublimation pressure: 94 ± 1.2 kPa
[3]
  refractive index: 1.39676 ± 0.00031
